Test results: PubChem BioAssay AID330 (DTP/NCI, 2004)
Where “and” joins values, the source holds several entries; their conditions need not be identical. Identical values can stand only once. Inconclusive results and toxic doses are left out.

System: P388 leukemia ip, CD2F1 mice, survival T/C
Experiment: NCI In Vivo Anticancer Drug Screen. Data for tumor model P388 Leukemia (intraperitoneal) in CD2F1 (CDF1) mice
Conditions: endpoint: median survival time, higher = longer survival
Method in brief: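 Mice carrying the transplanted tumor received test compound or vehicle. Survival was recorded in each group, and the value is the treated-group measurement divided by that of the vehicle-treated control group.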

[1] = dose: 60.0 mg/kg/injection, schedule: Q01DX005 (ip), vehicle: saline
[2] = dose: 120.0 mg/kg/injection, schedule: Q01DX005 (ip), vehicle: saline
[3] = dose: 12.5 mg/kg/injection, schedule: Q01DX005 (ip), vehicle: saline with Tween-80
[4] = dose: 25.0 mg/kg/injection, schedule: Q01DX005 (ip), vehicle: saline with Tween-80
[5] = dose: 50.0 mg/kg/injection, schedule: Q01DX005 (ip), vehicle: saline with Tween-80
[6] = dose: 100.0 mg/kg/injection, schedule: Q01DX005 (ip), vehicle: saline with Tween-80
[7] = dose: 60.0 mg/kg/injection, schedule: Q01DX005 (ip), vehicle: saline with Tween-80
[8] = dose: 240.0 mg/kg/injection, schedule: Q01DX005 (ip), vehicle: saline with Tween-80
[9] = dose: 50.0 mg/kg/injection, schedule: Q01DX009 (ip), vehicle: Klucel (hydroxypropylcellulose) (HPC)
[10] = dose: 100.0 mg/kg/injection, schedule: Q01DX009 (ip), vehicle: Klucel (hydroxypropylcellulose) (HPC)
[11] = dose: 200.0 mg/kg/injection, schedule: Q01DX009 (ip), vehicle: Klucel (hydroxypropylcellulose) (HPC)
[12] = dose: 50.0 mg/kg/injection, schedule: Q01DX009 (ip), vehicle: saline with Tween-80
[13] = dose: 200.0 mg/kg/injection, schedule: Q01DX009 (ip), vehicle: saline with Tween-80
[14] = dose: 400.0 mg/kg/injection, schedule: Q01DX009 (ip), vehicle: saline with Tween-80
[15] = dose: 50.0 mg/kg/injection, schedule: Q04DX003 (ip), vehicle: saline with Tween-80
[16] = dose: 100.0 mg/kg/injection, schedule: Q04DX003 (ip), vehicle: saline with Tween-80
[17] = dose: 50.0 mg/kg/injection, schedule: Q01DX009 (ip), vehicle: saline
[18] = dose: 100.0 mg/kg/injection, schedule: Q01DX009 (ip), vehicle: saline
[19] = dose: 200.0 mg/kg/injection, schedule: Q01DX009 (ip), vehicle: saline

C=C1C(=O)O[C@@H]2[C@H](O)[C@@H](C)[C@@H]3C=CC(=O)[C@@]3(C)[C@@H](OC(=O)/C(C)=C/C)[C@H]12
T/C (dose: 1.5 mg/kg/injection, schedule: Q01DX009 (ip), vehicle: saline + alcohol): 107 % of control | T/C (dose: 6.0 mg/kg/injection, schedule: Q01DX009 (ip), vehicle: saline + alcohol): 118 % of control | T/C (dose: 6.75 mg/kg/injection, schedule: Q01DX009 (ip), vehicle: saline + alcohol): 158 % of control | T/C (dose: 8.75 mg/kg/injection, schedule: Q01DX009 (ip), vehicle: saline + alcohol): 120 % of control | T/C (dose: 12.0 mg/kg/injection, schedule: Q01DX009 (ip), vehicle: saline + alcohol): 116 % of control | T/C (dose: 12.5 mg/kg/injection, schedule: Q01DX009 (ip), vehicle: saline + alcohol): 164 % of control

O=C(O)C(Cc1c[nH]c2ccccc12)C(=O)NO (centres undefined)
T/C [1]: 97 % of control | T/C [2]: 97 % of control | T/C (dose: 240.0 mg/kg/injection, schedule: Q01DX005 (ip), vehicle: saline): 94 % of control

Cc1cc[n+](C2=C(Nc3ccccc3)C(=O)c3ccccc3C2=O)cc1
T/C [3]: 106 % of control | T/C [4]: 114 % of control | T/C [5]: 116 % of control and 122 % of control | T/C [6]: 118 % of control

C1=CCC(C(Nc2nncs2)Nc2nncs2)CC1 (centres undefined)
T/C [7]: 107 % of control | T/C [8]: 108 % of control

Cc1ccc(S(=O)(=O)SSC(=S)Sc2ccccc2)cc1
T/C [9]: 116 % of control | T/C [10]: 107 % of control | T/C [11]: 109 % of control

CCCCN(CC(O)CNc1cc(OC)cc2cccnc12)C(C)CC (centres undefined)
T/C (dose: 6.25 mg/kg/injection, schedule: Q01DX005 (ip), vehicle: saline with Tween-80): 95 % of control | T/C [3]: 91 % of control | T/C [4]: 100 % of control | T/C (dose: 25.0 mg/kg/injection, schedule: Q01DX005 (ip), vehicle: saline): 92 % of control

CN(C)c1ccc(Sc2ccc3nc(N)nc(N)c3c2)cc1
T/C [12]: 95 % of control | T/C [13]: 174 % of control | T/C [14]: 117 % of control

COc1ccc(C2C3=C(CCC(CN(C)C)C3=O)OC3=C2C(=O)C(CN(C)C)CC3)cc1 (centres undefined)
T/C [1]: 102 % of control | T/C [2]: 102 % of control

CC[N+](C)(C)c1ccc(C(=C2C=CC(=[N+](C)C)C=C2)c2ccc(N(C)C)cc2)cc1
T/C (dose: 3.12 mg/kg/injection, schedule: Q01DX005 (ip), vehicle: saline): 100 % of control | T/C (dose: 6.25 mg/kg/injection, schedule: Q01DX005 (ip), vehicle: saline): 100 % of control | T/C (dose: 12.5 mg/kg/injection, schedule: Q01DX005 (ip), vehicle: saline): 104 % of control

CCCCNC(=O)OCCN(CCOC(=O)NCCCC)C(=O)N1c2ccccc2Sc2ccccc21
T/C [15]: 98 % of control | T/C [16]: 90 % of control | T/C (dose: 200.0 mg/kg/injection, schedule: Q04DX003 (ip), vehicle: saline with Tween-80): 90 % of control

CN1CCC1=O
T/C [17]: 105 % of control | T/C [18]: 110 % of control | T/C [19]: 97 % of control

C1=CC(=C(c2ccccc2)c2ccccc2)C=C1
T/C [9]: 98 % of control | T/C [12]: 107 % of control | T/C [10]: 100 % of control | T/C (dose: 100.0 mg/kg/injection, schedule: Q01DX009 (ip), vehicle: saline with Tween-80): 104 % of control | T/C [11]: 101 % of control | T/C [13]: 102 % of control | T/C [14]: 102 % of control

Oc1cccnc1
T/C (dose: 25.0 mg/kg/injection, schedule: Q01DX009 (ip), vehicle: saline): 100 % of control and 103 % of control | T/C [17]: 99 % of control and 102 % of control | T/C [18]: 102 % of control and 103 % of control | T/C [19]: 103 % of control and 112 % of control | T/C (dose: 400.0 mg/kg/injection, schedule: Q01DX009 (ip), vehicle: saline): 100 % of control and 108 % of control | T/C (dose: 600.0 mg/kg/injection, schedule: Q01DX009 (ip), vehicle: saline): 102 % of control and 111 % of control

CCC1(c2ccccc2)OCC(C2CCCCN2)O1 (centres undefined)
T/C [9]: 95 % of control | T/C [10]: 95 % of control

CCOC(CSc1ncnc2nc[nH]c12)OCC
T/C [17]: 100 % of control | T/C [18]: 96 % of control | T/C [19]: 112 % of control

O=C1C(Cl)=C(c2ccccc2)C(=O)C(Cl)=C1c1ccccc1
T/C (dose: 12.5 mg/kg/injection, schedule: Q01DX009 (ip), vehicle: saline with Tween-80): 100 % of control | T/C (dose: 25.0 mg/kg/injection, schedule: Q01DX009 (ip), vehicle: saline with Tween-80): 109 % of control | T/C [12]: 109 % of control

CCCN=Cc1ccccc1O.CCCN=Cc1ccccc1O.[Cu]
T/C (dose: 3.75 mg/kg/injection, schedule: Q01DX005 (ip), vehicle: Klucel (hydroxypropylcellulose) (HPC)): 100 % of control | T/C (dose: 7.5 mg/kg/injection, schedule: Q01DX005 (ip), vehicle: Klucel (hydroxypropylcellulose) (HPC)): 104 % of control | T/C (dose: 15.0 mg/kg/injection, schedule: Q01DX005 (ip), vehicle: Klucel (hydroxypropylcellulose) (HPC)): 97 % of control | T/C (dose: 30.0 mg/kg/injection, schedule: Q01DX005 (ip), vehicle: Klucel (hydroxypropylcellulose) (HPC)): 92 % of control and 97 % of control | T/C (dose: 60.0 mg/kg/injection, schedule: Q01DX005 (ip), vehicle: Klucel (hydroxypropylcellulose) (HPC)): 108 % of control and 115 % of control

COc1cc(C)c(O)c(C/C=C(\C)CC2=C[C@@]3(C)CCC[C@@]3(C)[C@]3(C=CC(C)(C)O3)O2)c1
T/C (dose: 10.0 mg/kg/injection, schedule: Q01DX005 (ip), vehicle: saline with Tween-80): 94 % of control | T/C (dose: 20.0 mg/kg/injection, schedule: Q01DX005 (ip), vehicle: saline with Tween-80): 99 % of control | T/C (dose: 40.0 mg/kg/injection, schedule: Q01DX005 (ip), vehicle: saline with Tween-80): 99 % of control

O=C=Nc1ccc(N=Nc2ccccc2)cc1
T/C (dose: 12.5 mg/kg/injection, schedule: Q04DX003 (ip), vehicle: saline with Tween-80): 97 % of control | T/C (dose: 25.0 mg/kg/injection, schedule: Q04DX003 (ip), vehicle: saline with Tween-80): 90 % of control | T/C [15]: 90 % of control | T/C [16]: 90 % of control and 92 % of control | T/C (dose: 150.0 mg/kg/injection, schedule: Q04DX003 (ip), vehicle: saline with Tween-80): 92 % of control | T/C (dose: 225.0 mg/kg/injection, schedule: Q04DX003 (ip), vehicle: saline with Tween-80): 100 % of control | T/C (dose: 335.0 mg/kg/injection, schedule: Q04DX003 (ip), vehicle: saline with Tween-80): 93 % of control

C[n+]1ccc(C#N)c2ccccc21
T/C (dose: 3.75 mg/kg/injection, schedule: Q01DX009 (ip), vehicle: saline with Tween-80): 95 % of control | T/C (dose: 7.5 mg/kg/injection, schedule: Q01DX009 (ip), vehicle: saline with Tween-80): 109 % of control | T/C (dose: 15.0 mg/kg/injection, schedule: Q01DX009 (ip), vehicle: saline with Tween-80): 118 % of control

Cc1c(-c2ccccc2)oc(=O)c(Cl)c1N(C)c1ccccc1
T/C (dose: 100.0 mg/kg/injection, schedule: Q01DX001 (ip), vehicle: saline with Tween-80): 94 % of control | T/C (dose: 200.0 mg/kg/injection, schedule: Q01DX001 (ip), vehicle: saline with Tween-80): 99 % of control | T/C (dose: 400.0 mg/kg/injection, schedule: Q01DX001 (ip), vehicle: saline with Tween-80): 91 % of control

Cc1cc(C)nc(NCCCNc2nc(C)cc(C)n2)n1
T/C (dose: 50.0 mg/kg/injection, schedule: Q01DX005 (ip), vehicle: Klucel (hydroxypropylcellulose) (HPC)): 101 % of control | T/C (dose: 100.0 mg/kg/injection, schedule: Q01DX005 (ip), vehicle: Klucel (hydroxypropylcellulose) (HPC)): 98 % of control | T/C (dose: 200.0 mg/kg/injection, schedule: Q01DX005 (ip), vehicle: Klucel (hydroxypropylcellulose) (HPC)): 100 % of control

O=CC(=C\c1ccco1)/C(C=O)=C\c1ccco1
T/C [5]: 97 % of control | T/C [6]: 112 % of control

C=C1CC2(CCCCC2C(C)(C)C)OC1=O (centres undefined)
T/C (dose: 100.0 mg/kg/injection, schedule: Q04DX002 (ip), vehicle: saline): 100 % of control | T/C (dose: 200.0 mg/kg/injection, schedule: Q04DX002 (ip), vehicle: saline): 99 % of control | T/C (dose: 400.0 mg/kg/injection, schedule: Q04DX002 (ip), vehicle: saline): 99 % of control

Cc1c(NC(=O)Nc2ccc(F)cc2)c(=O)n(-c2ccccc2)n1C
T/C [7]: 114 % of control | T/C (dose: 120.0 mg/kg/injection, schedule: Q01DX005 (ip), vehicle: saline with Tween-80): 99 % of control | T/C [8]: 96 % of control
